The source of these data is publication PMC7447621, “Chemoenzymatic synthesis of daptomycin analogs active against daptomycin-resistant strains” (Applied Microbiology and Biotechnology, 2020).

What is called MIC is the lowest concentration that inhibits growth of the organism.

The test system of experiment [1] is S. aureus (hVISA, SR220). The settings on record: DapS, VISA, BEI NR-50512; MIC90, broth microdilution, MHB + 50 mg L^−1 calcium, 35 °C, 22 h, A600, triplicate.
Experiment [2] relates to S. aureus (SAUSA300_1715 NE1656). To be noted: DapR, strain JE2 transposon mutant NE1656, BEI NR-48198; MIC90, broth microdilution, MHB + 50 mg L^−1 calcium, 35 °C, 22 h, A600, triplicate. A general note: Dilution methods test growth across graded concentrations, often in twofold steps.
Experiment [3] has as its system E. faecalis (R712). To be noted: DapR, BEI HM-335; MIC90, broth microdilution, MHB + 50 mg L^−1 calcium, 35 °C, 22 h, A600, triplicate.
The subject of experiment [4] is E. faecalis (S613). The settings on record: DapS, BEI HM-334, MIC90, broth microdilution, MHB + 50 mg L^−1 calcium, 35 °C, 22 h, A600, triplicate.
For experiment [5], the system named is S. aureus (SAUSA300_1713 NE573). The settings on record: DapR, strain JE2 transposon mutant NE573, BEI NR-47116; MIC90, broth microdilution, MHB + 50 mg L^−1 calcium, 35 °C, 22 h, A600, triplicate.
In experiment [6] the test system is E. faecalis (hVRE, ATCC 700802). To be noted: vancomycin-resistant Enterococcus; Table 1, Fig. S1.
The subject of experiment [7] is S. aureus (ATCC 25923). To be noted: DapS strain; MIC90, broth microdilution, MHB + 50 mg L^−1 calcium, inoculum 1×10^5–5×10^5 CFU/mL, 35 °C, 22 h, A600, triplicate; converted from μM.
Experiment [8] has as its system DapR S. aureus.

Where “and” joins values, the source holds several entries; their conditions need not be identical. Identical values can stand only once. Like-named read-outs stand apart in the source and are kept apart here. Numbered stars: 1 amine (or outer) side, 2 acyl side, 3 side chain; on linkers, the order of the positions; unused ones are H or OH. Bridge positions count the residues as written; N and C are the ends. Square brackets hold non-standard residues; d marks the D form. Peptide text beside a SMILES is read from it. * marks the point of attachment. X11 = O=C([C@H](Cc1c[nH]c2cc(C/C=C/c3ccccc3)ccc12)N[*:1])[*:2]; X10 = C=C(C)/C=C/C(C)n1cc(C[C@H](N[*:1])C(=O)[*:2])c2ccccc21; X12 = C=C(C)/C=C/Cc1[nH]c2ccccc2c1C[C@H](N[*:1])C(=O)[*:2]; X1 = O=C([C@H](Cc1c[nH]c2cc(CC3=CCCCC3)ccc12)N[*:1])[*:2]; X8 = C=CC1(n2cc(C[C@H](N[*:1])C(=O)[*:2])c3ccccc32)CCCCC1; X2 = O=C([C@H](Cc1cn(CC=C2CCCCC2)c2ccccc12)N[*:1])[*:2]; X6 = CC/C(C)=C/Cn1cc(C[C@H](N[*:1])C(=O)[*:2])c2ccccc21; X4 = CCC(=CCn1cc(C[C@H](N[*:1])C(=O)[*:2])c2ccccc21)CC; X7 = O=C([C@H](Cc1cn(CC2=CCCCC2)c2ccccc12)N[*:1])[*:2]; X9 = CC(C)=CCn1cc(C[C@H](N[*:1])C(=O)[*:2])c2ccccc21; Glu(3R-Me) = C[C@H](CC(=O)O)[C@H](N)C(=O)O; Kyn = Nc1ccccc1C(=O)C[C@H](N)C(=O)O; Decanoyl = CCCCCCCCCC(=O)*; Orn = NCCC[C@H](N)C(=O)O

Take `CCCCCCCCCC(=O)N[C@@H](Cc1c[nH]c2ccccc12)C(=O)N[C@H](CC(N)=O)C(=O)N[C@@H](CC(=O)O)C(=O)N[C@@H]1C(=O)NCC(=O)N[C@@H](CCCN)C(=O)N[C@@H](CC(=O)O)C(=O)N[C@H](C)C(=O)N[C@@H](CC(=O)O)C(=O)NCC(=O)N[C@H](CO)C(=O)N[C@@H]([C@H](C)CC(=O)O)C(=O)N[C@@H](CC(=O)c2ccccc2N)C(=O)O[C@@H]1C` [DAP, Daptomycin]: the MIC in experiment [1] was 4.0 µg/mL; in experiment [2], 16.2 µg/mL; in experiment [3], more than 32.4 µg/mL; in experiment [4], 16.2 µg/mL; in experiment [4] (listed as Dap) it was ~ 16 μg mL^−1; in experiment [5] it was 16.2 µg/mL.

As to `CCCCCCCCCC(=O)N[C@@H](Cc1cn(CC=C(C)C)c2ccccc12)C(=O)N[C@H](CC(N)=O)C(=O)N[C@@H](CC(=O)O)C(=O)N[C@@H]1C(=O)NCC(=O)N[C@@H](CCCN)C(=O)N[C@@H](CC(=O)O)C(=O)N[C@H](C)C(=O)N[C@@H](CC(=O)O)C(=O)NCC(=O)N[C@H](CO)C(=O)N[C@@H]([C@H](C)CC(=O)O)C(=O)N[C@@H](CC(=O)c2ccccc2N)C(=O)O[C@@H]1C` [compound 40, N1-Trp-prenyl-Dap] (Decanoyl-[X9][dN]DTG[Orn]D[dA]DG[dS][Glu(3R-Me)][Kyn]; ester 4-C), the values for the MIC in experiment [1] and in experiment [3] were 0.5 µg/mL and 33.7 µg/mL, respectively.

In the case of `CCCCCCCCCC(=O)N[C@@H](Cc1cn(C/C=C(\C)CC)c2ccccc12)C(=O)N[C@H](CC(N)=O)C(=O)N[C@@H](CC(=O)O)C(=O)N[C@@H]1C(=O)NCC(=O)N[C@@H](CCCN)C(=O)N[C@@H](CC(=O)O)C(=O)N[C@H](C)C(=O)N[C@@H](CC(=O)O)C(=O)NCC(=O)N[C@H](CO)C(=O)N[C@@H]([C@H](C)CC(=O)O)C(=O)N[C@@H](CC(=O)c2ccccc2N)C(=O)O[C@@H]1C` [compound 42, N1-6-Dap] (Decanoyl-[X6][dN]DTG[Orn]D[dA]DG[dS][Glu(3R-Me)][Kyn]; ester 4-C), the MIC in experiment [1] worked out at 0.5 µg/mL; in experiment [3], 17.0 µg/mL; in experiment [4], 1.1 µg/mL. Also, the “fold enhanced activity (compared with Dap)” value (from here on “fold enhanced activity”) in experiment [6] was 5–15 fold.

`CCCCCCCCCC(=O)N[C@@H](Cc1cn(CC=C(CC)CC)c2ccccc12)C(=O)N[C@H](CC(N)=O)C(=O)N[C@@H](CC(=O)O)C(=O)N[C@@H]1C(=O)NCC(=O)N[C@@H](CCCN)C(=O)N[C@@H](CC(=O)O)C(=O)N[C@H](C)C(=O)N[C@@H](CC(=O)O)C(=O)NCC(=O)N[C@H](CO)C(=O)N[C@@H]([C@H](C)CC(=O)O)C(=O)N[C@@H](CC(=O)c2ccccc2N)C(=O)O[C@@H]1C` [compound 44, N1-7-Dap] (Decanoyl-[X4][dN]DTG[Orn]D[dA]DG[dS][Glu(3R-Me)][Kyn]; ester 4-C): the MIC was 0.5 µg/mL in experiment [1]; 0.5 µg/mL in experiment [2]; 4.3 µg/mL in experiment [3]; 0.3 to 0.6 µg/mL and 0.5 µg/mL in experiment [4].

Consider `C=C(C)/C=C/Cc1[nH]c2ccccc2c1C[C@H](NC(=O)CCCCCCCCC)C(=O)N[C@H](CC(N)=O)C(=O)N[C@@H](CC(=O)O)C(=O)N[C@@H]1C(=O)NCC(=O)N[C@@H](CCCN)C(=O)N[C@@H](CC(=O)O)C(=O)N[C@H](C)C(=O)N[C@@H](CC(=O)O)C(=O)NCC(=O)N[C@H](CO)C(=O)N[C@@H]([C@H](C)CC(=O)O)C(=O)N[C@@H](CC(=O)c2ccccc2N)C(=O)O[C@@H]1C` [compound 46, C2R-16-Dap] (Decanoyl-[X12][dN]DTG[Orn]D[dA]DG[dS][Glu(3R-Me)][Kyn]; ester 4-C), for which the MIC in experiment [1] is 17.0 µg/mL.

As for `C=C(C)/C=C/C(C)n1cc(C[C@H](NC(=O)CCCCCCCCC)C(=O)N[C@H](CC(N)=O)C(=O)N[C@@H](CC(=O)O)C(=O)N[C@@H]2C(=O)NCC(=O)N[C@@H](CCCN)C(=O)N[C@@H](CC(=O)O)C(=O)N[C@H](C)C(=O)N[C@@H](CC(=O)O)C(=O)NCC(=O)N[C@H](CO)C(=O)N[C@@H]([C@H](C)CC(=O)O)C(=O)N[C@@H](CC(=O)c3ccccc3N)C(=O)O[C@@H]2C)c2ccccc21` (stereo partly drawn) [compound 48, N1R-18-Dap] (Decanoyl-[X10][dN]DTG[Orn]D[dA]DG[dS][Glu(3R-Me)][Kyn]; ester 4-C), the MIC in experiment [7] and in experiment [3] was 17.1 µg/mL throughout.

For the compound `C=CC1(n2cc(C[C@H](NC(=O)CCCCCCCCC)C(=O)N[C@H](CC(N)=O)C(=O)N[C@@H](CC(=O)O)C(=O)N[C@@H]3C(=O)NCC(=O)N[C@@H](CCCN)C(=O)N[C@@H](CC(=O)O)C(=O)N[C@H](C)C(=O)N[C@@H](CC(=O)O)C(=O)NCC(=O)N[C@H](CO)C(=O)N[C@@H]([C@H](C)CC(=O)O)C(=O)N[C@@H](CC(=O)c4ccccc4N)C(=O)O[C@@H]3C)c3ccccc32)CCCCC1` [compound 50, N1R-19-Dap] (Decanoyl-[X8][dN]DTG[Orn]D[dA]DG[dS][Glu(3R-Me)][Kyn]; ester 4-C), the MIC in experiment [3] was determined as 17.3 µg/mL.

Consider `CCCCCCCCCC(=O)N[C@@H](Cc1cn(CC=C2CCCCC2)c2ccccc12)C(=O)N[C@H](CC(N)=O)C(=O)N[C@@H](CC(=O)O)C(=O)N[C@@H]1C(=O)NCC(=O)N[C@@H](CCCN)C(=O)N[C@@H](CC(=O)O)C(=O)N[C@H](C)C(=O)N[C@@H](CC(=O)O)C(=O)NCC(=O)N[C@H](CO)C(=O)N[C@@H]([C@H](C)CC(=O)O)C(=O)N[C@@H](CC(=O)c2ccccc2N)C(=O)O[C@@H]1C` [compound 51, N1-19-Dap] (Decanoyl-[X2][dN]DTG[Orn]D[dA]DG[dS][Glu(3R-Me)][Kyn]; ester 4-C), for which the minimal inhibitory concentration (MIC) in experiment [1] was determined as 1.1 µg/mL; in experiment [2] it was 2.6 µg/mL; in experiment [3], 5.2 µg/mL; in experiment [4] it was 1.3 µg/mL; in experiment [5] it was 1.3 µg/mL. In addition, the “fold enhanced activity” value in experiment [6] is 5–15 fold.

In the case of `CCCCCCCCCC(=O)N[C@@H](Cc1c[nH]c2cc(CC3=CCCCC3)ccc12)C(=O)N[C@H](CC(N)=O)C(=O)N[C@@H](CC(=O)O)C(=O)N[C@@H]1C(=O)NCC(=O)N[C@@H](CCCN)C(=O)N[C@@H](CC(=O)O)C(=O)N[C@H](C)C(=O)N[C@@H](CC(=O)O)C(=O)NCC(=O)N[C@H](CO)C(=O)N[C@@H]([C@H](C)CC(=O)O)C(=O)N[C@@H](CC(=O)c2ccccc2N)C(=O)O[C@@H]1C` [compound 52, C6-20-Dap] (Decanoyl-[X1][dN]DTG[Orn]D[dA]DG[dS][Glu(3R-Me)][Kyn]; ester 4-C), the MIC is 0.5 µg/mL in experiment [1]; 0.2 µg/mL in experiment [2]; 6.2 µg/mL in experiment [3]; 0.3 to 0.6 µg/mL and 0.4 µg/mL in experiment [4]; 0.4 µg/mL in experiment [5]. The MIC range in experiment [8] (DapR S. aureus strains (Table 1), range over the named analogs and strains) lay in the range of 0.2 to 0.5 µg/mL. In addition, the “fold improvement in antibacterial activity over Dap” value in experiment [8] (DapR S. aureus, relative potency, Fig. S1) is listed as 30–80 fold. Moreover, the “fold enhanced activity” value in experiment [6] is 5–15 fold.

In the case of `CCCCCCCCCC(=O)N[C@@H](Cc1cn(CC2=CCCCC2)c2ccccc12)C(=O)N[C@H](CC(N)=O)C(=O)N[C@@H](CC(=O)O)C(=O)N[C@@H]1C(=O)NCC(=O)N[C@@H](CCCN)C(=O)N[C@@H](CC(=O)O)C(=O)N[C@H](C)C(=O)N[C@@H](CC(=O)O)C(=O)NCC(=O)N[C@H](CO)C(=O)N[C@@H]([C@H](C)CC(=O)O)C(=O)N[C@@H](CC(=O)c2ccccc2N)C(=O)O[C@@H]1C` [compound 53, N1-20-Dap] (Decanoyl-[X7][dN]DTG[Orn]D[dA]DG[dS][Glu(3R-Me)][Kyn]; ester 4-C), the MIC in experiment [2] is 17.1 µg/mL; in experiment [3], more than 17.1 µg/mL; in experiment [4] it was 17.1 µg/mL; in experiment [5], 17.1 µg/mL.

Consider `CCCCCCCCCC(=O)N[C@@H](Cc1c[nH]c2cc(C/C=C/c3ccccc3)ccc12)C(=O)N[C@H](CC(N)=O)C(=O)N[C@@H](CC(=O)O)C(=O)N[C@@H]1C(=O)NCC(=O)N[C@@H](CCCN)C(=O)N[C@@H](CC(=O)O)C(=O)N[C@H](C)C(=O)N[C@@H](CC(=O)O)C(=O)NCC(=O)N[C@H](CO)C(=O)N[C@@H]([C@H](C)CC(=O)O)C(=O)N[C@@H](CC(=O)c2ccccc2N)C(=O)O[C@@H]1C` [compound 54, C6-22-Dap] (Decanoyl-[X11][dN]DTG[Orn]D[dA]DG[dS][Glu(3R-Me)][Kyn]; ester 4-C), for which the MIC in experiment [3] came to 8.7 µg/mL.
